Reference: ChEMBL document CHEMBL3576760, “Modification of amphipathic non-opioid dynorphin A analogues for rat brain bradykinin receptors” (Bioorg Med Chem Lett, 2015)
The source made the active and inactive calls. The rule behind the calls is not given here. Non-standard residues stand in square brackets, D forms with d. Residues, ends and D or L forms follow the SMILES beside them. ξ: configuration not given here. Phe(4-NH2) = Nc1ccc(C[C@H](N)C(=O)O)cc1; dNle = CCCC[C@@H](N)C(=O)O; ξNle = CCCCC(N)C(=O)O

Key:
[1] = Retention time of the compound by HPLC analysis; format: physicochemical
[2] = Displacement of [3H]DALKD from bradykinin receptor in rat brain membrane at pH 7.4 by competition assay; format: cell membranes
[3] = (§1) Displacement of [3H]DALKD from bradykinin receptor in rat brain membrane at pH 6.8 by competition assay; format: cell membranes
Rattus norvegicus = organism: Rattus norvegicus; test: as §1; format: cell membranes

CCCCC(NC(=O)[C@H](CCCCN)NC(=O)[C@@H]1CCCN1)C(=O)N[C@@H](CCCCN)C(=O)O (some centres not stated) (H-PK[ξNle]K-OH)
Retention_time [1]: 7.5 min | IC50 [2]: 71 nM | pIC50 [2]: 7.15

CC[C@H](C)[C@H](NC(=O)[C@H](CCCNC(=N)N)NC(=O)[C@H](CCCNC(=N)N)NC(=O)[C@H](CC(C)C)NC(=O)[C@H](Cc1ccccc1)NC(=O)CN)C(=O)O (H-GFLRRI-OH)
Retention_time [1]: 10.1 min | IC50 [2]: 2300 nM | pIC50 [2]: 5.63

CC(C)C[C@H](NC(=O)[C@H](CCCCN)NC(=O)[C@@H](N)Cc1ccccc1)C(=O)N[C@@H](CCCCN)C(=O)O (H-FKLK-OH)
Retention_time [1]: 10.8 min | IC50 [2]: 350 nM | pIC50 [2]: 6.46

CC[C@H](C)[C@H](NC(=O)[C@H](CCCNC(=N)N)NC(=O)[C@@H]1CCCN1C(=O)[C@H](CCCCN)NC(=O)[C@H](CC(C)C)NC(=O)[C@@H](N)CCCCN)C(=O)O (H-KLKPRI-OH)
pIC50 [3]: 5.2 | IC50 ([3]; read-out: IC50): 6300 nM | Retention_time [1]: 9.9 min

CC(C)C[C@H](NC(=O)[C@H](CCCNC(=N)N)NC(=O)[C@H](CC(C)C)NC(=O)[C@@H](N)Cc1ccccc1)C(=O)N[C@@H](CCCNC(=N)N)C(=O)N1CCC[C@H]1C(=O)N[C@@H](CCCNC(=N)N)C(=O)O (H-FLRLRPR-OH)
pIC50 [3]: 7 | IC50 ([3]; read-out: IC50): 100 nM | Retention_time [1]: 10.8 min

CC(C)C[C@H](NC(=O)[C@H](CCCCN)NC(=O)[C@@H](N)Cc1ccc(N)cc1)C(=O)N[C@@H](CCCCN)C(=O)O (H-[Phe(4-NH2)]KLK-OH)
Retention_time [1]: 7.2 min | IC50 [2]: 450 nM | pIC50 [2]: 6.35

CC(C)C[C@H](NC(=O)[C@H](CCCCN)NC(=O)[C@@H]1CCCN1C(=O)[C@@H](N)CCCNC(=N)N)C(=O)N[C@@H](CCCCN)C(=O)O
pIC50 [3]: 7.24 | IC50 ([3]; read-out: IC50): 58 nM | Retention_time [1]: 6 min

CC[C@H](C)[C@H](NC(=O)[C@H](CCCNC(=N)N)NC(=O)[C@@H]1CCCN1C(=O)[C@H](CCCCN)NC(=O)[C@H](CC(C)C)NC(=O)[C@@H](N)CCCCN)C(=O)N[C@@H](CCCNC(=N)N)C(=O)N[C@@H](CC(C)C)C(=O)N[C@@H](Cc1ccccc1)C(=O)NCC(=O)NCC(=O)O (H-KLKPRIRLFGG-OH)
pIC50 [3]: 6.82 | IC50 ([3]; read-out: IC50): 150 nM | Retention_time [1]: 12.1 min

CC[C@H](C)[C@H](N)C(=O)N[C@@H](CCCNC(=N)N)C(=O)N1CCC[C@H]1C(=O)N[C@@H](CCCCN)C(=O)N[C@@H](CC(C)C)C(=O)N[C@@H](CCCCN)C(=O)O (H-IRPKLK-OH)
pIC50 [3]: 7.31 | IC50 ([3]; read-out: IC50): 49 nM | Retention_time [1]: 6.8 min

CC(C)C[C@H](NC(=O)[C@H](Cc1ccccc1)NC(=O)CN)C(=O)N[C@@H](CCCNC(=N)N)C(=O)O (H-GFLR-OH)
Retention_time [1]: 8.7 min | IC50 [2]: 950 nM | pIC50 [2]: 6.02

CC[C@H](C)[C@H](NC(=O)[C@H](CCCNC(=N)N)NC(=O)[C@@H](N)Cc1ccccc1)C(=O)N[C@@H](CCCNC(=N)N)C(=O)N1CCC[C@H]1C(=O)N[C@@H](CCCCN)C(=O)N[C@@H](CC(C)C)C(=O)N[C@@H](CCCCN)C(=O)O (H-FRIRPKLK-OH)
pIC50 [3]: 7.08 | IC50 ([3]; read-out: IC50): 83 nM | Retention_time [1]: 10.2 min

CCCCC(N)C(=O)N[C@@H](CCCCN)C(=O)N1CCC[C@H]1C(=O)N[C@@H](CCCCN)C(=O)NC(CCCC)C(=O)N[C@@H](CCCCN)C(=O)O (some centres not stated) (H-[ξNle]KPK[ξNle]K-OH)
pIC50 [3]: 7.11 | IC50 ([3]; read-out: IC50): 78 nM

CC[C@H](C)[C@H](NC(=O)[C@H](CCCNC(=N)N)NC(=O)[C@H](CCCNC(=N)N)NC(=O)[C@H](CC(C)C)NC(=O)[C@@H](N)Cc1ccccc1)C(=O)O (H-FLRRI-OH)
Retention_time [1]: 9.2 min | IC50 [2]: 4800 nM | pIC50 [2]: 5.32

CCCCC(N)C(=O)N[C@@H](CCCNC(=N)N)C(=O)N1CCC[C@H]1C(=O)N[C@@H](CCCNC(=N)N)C(=O)NC(CCCC)C(=O)N[C@@H](CCCCN)C(=O)O (some centres not stated) (H-[ξNle]RPR[ξNle]K-OH)
pIC50 [3]: 7.08 | IC50 ([3]; read-out: IC50): 83 nM | Retention_time [1]: 8.2 min

CCCCC(N)C(=O)N[C@@H](CCCCN)C(=O)NC(CCCC)C(=O)N[C@@H](CCCCN)C(=O)O (some centres not stated) (H-[ξNle]K[ξNle]K-OH)
Retention_time [1]: 9.9 min | IC50 [2]: 110 nM | pIC50 [2]: 6.94

CC[C@H](C)[C@H](NC(=O)[C@H](CCCNC(=N)N)NC(=O)[C@@H]1CCCN1C(=O)[C@H](CCCCN)NC(=O)[C@H](CC(C)C)NC(=O)[C@@H](N)CCCCN)C(=O)N[C@@H](CCCNC(=N)N)C(=O)N[C@@H](CCCNC(=N)N)C(=O)N[C@@H](CC(C)C)C(=O)N[C@@H](Cc1ccccc1)C(=O)NCC(=O)NCC(=O)O (H-KLKPRIRRLFGG-OH)
pIC50 [3]: 7.11 | IC50 ([3]; read-out: IC50): 78 nM | Retention_time [1]: 11.6 min

CC[C@H](C)[C@H](NC(=O)[C@H](CCCNC(=N)N)NC(=O)[C@H](CC(C)C)NC(=O)[C@H](Cc1ccccc1)NC(=O)CNC(=O)CN)C(=O)N[C@@H](CCCNC(=N)N)C(=O)N1CCC[C@H]1C(=O)N[C@@H](CCCCN)C(=O)N[C@@H](CC(C)C)C(=O)N[C@@H](CCCCN)C(=O)O (H-GGFLRIRPKLK-OH)
pIC50 [3]: 7.39 | IC50 ([3]; read-out: IC50): 41 nM

CC[C@H](C)[C@H](NC(=O)[C@H](CCCNC(=N)N)NC(=O)[C@H](CCCNC(=N)N)NC(=O)[C@H](CC(C)C)NC(=O)[C@@H](N)Cc1ccccc1)C(=O)N[C@@H](CCCNC(=N)N)C(=O)N1CCC[C@H]1C(=O)N[C@@H](CCCCN)C(=O)N[C@@H](CC(C)C)C(=O)O (H-FLRRIRPKL-OH)
pIC50 [3]: 5.28 | IC50 ([3]; read-out: IC50): 5200 nM | Retention_time [1]: 11.4 min

CC[C@H](C)[C@H](NC(=O)[C@H](CCCNC(=N)N)NC(=O)[C@@H]1CCCN1C(=O)[C@H](CCCCN)NC(=O)[C@H](CC(C)C)NC(=O)[C@@H](N)CC(C)C)C(=O)N[C@@H](CCCNC(=N)N)C(=O)N[C@@H](CCCNC(=N)N)C(=O)N[C@@H](CC(C)C)C(=O)N[C@@H](Cc1ccccc1)C(=O)NCC(=O)NCC(=O)O (H-LLKPRIRRLFGG-OH)
pIC50 [3]: 7.03 | IC50 ([3]; read-out: IC50): 93 nM | Retention_time [1]: 12.6 min

CCCCC(NC(=O)[C@H](CCCNC(=N)N)NC(=O)C(CCCC)NC(=O)[C@@H](N)Cc1ccccc1)C(=O)N[C@@H](CCCNC(=N)N)C(=O)N1CCC[C@H]1C(=O)N[C@@H](CCCNC(=N)N)C(=O)O (some centres not stated) (H-F[ξNle]R[ξNle]RPR-OH)
pIC50 [3]: 7.06 | IC50 ([3]; read-out: IC50): 87 nM

CCCCC(N)C(=O)N[C@@H](CCCCN)C(=O)N[C@H](C(=O)N[C@@H](CCCCN)C(=O)N1CCC[C@H]1C(=O)N[C@@H](CCCCN)C(=O)O)[C@@H](C)CC (some centres not stated) (H-[ξNle]KIKPK-OH)
pIC50 [3]: 6.34 | IC50 ([3]; read-out: IC50): 460 nM | Retention_time [1]: 7.9 min

CC[C@H](C)[C@H](NC(=O)[C@H](CCCNC(=N)N)NC(=O)[C@@H]1CCCN1C(=O)[C@@H](N)CCCCN)C(=O)N[C@@H](CCCNC(=N)N)C(=O)N[C@@H](CC(C)C)C(=O)N[C@@H](Cc1ccccc1)C(=O)O (H-KPRIRLF-OH)
pIC50 [3]: 7.3 | IC50 ([3]; read-out: IC50): 50 nM | Retention_time [1]: 14.5 min

CC(C)C[C@H](NC(=O)[C@H](CCCCN)NC(=O)[C@@H]1CCCN1)C(=O)N[C@@H](CCCCN)C(=O)O (H-PKLK-OH)
pIC50 [3]: 6.68 | IC50 ([3]; read-out: IC50): 210 nM

CC[C@H](C)[C@H](NC(=O)[C@@H](N)CCCNC(=N)N)C(=O)N[C@@H](CCCNC(=N)N)C(=O)N1CCC[C@H]1C(=O)N[C@@H](CCCCN)C(=O)N[C@@H](CC(C)C)C(=O)N[C@@H](CCCCN)C(=O)O (H-RIRPKLK-OH)
pIC50 [3]: 7.19 | IC50 ([3]; read-out: IC50): 65 nM | Retention_time [1]: 8.3 min

CCCC[C@@H](NC(=O)[C@H](N)Cc1ccccc1)C(=O)N[C@H](CCCNC(=N)N)C(=O)N[C@H](CCCC)C(=O)N[C@H](CCCNC(=N)N)C(=O)N1CCC[C@@H]1C(=O)N[C@H](CCCCN)C(=O)O (H-[dF][dNle][dR][dNle][dR][dP][dK]-OH)
IC50 [3]: Not Active | pIC50 (Rattus norvegicus): inactive | Retention_time [1]: 11.1 min

CC[C@H](C)[C@H](NC(=O)[C@H](CCCNC(=N)N)NC(=O)[C@@H]1CCCN1C(=O)[C@@H](N)CCCCN)C(=O)N[C@@H](CCCNC(=N)N)C(=O)N[C@@H](CC(C)C)C(=O)O (H-KPRIRL-OH)
pIC50 [3]: 6.03 | IC50 ([3]; read-out: IC50): 930 nM | Retention_time [1]: 9.9 min

CC[C@H](C)[C@H](NC(=O)[C@H](CCCNC(=N)N)NC(=O)[C@@H](NC(=O)[C@@H](N)Cc1ccccc1)[C@@H](C)CC)C(=O)N[C@@H](CCCNC(=N)N)C(=O)N1CCC[C@H]1C(=O)N[C@@H](CCCNC(=N)N)C(=O)O (H-FIRIRPR-OH)
pIC50 [3]: 6.96 | IC50 ([3]; read-out: IC50): 110 nM | Retention_time [1]: 9.9 min
